Each structure is given as a SMILES string. Positions count from the first letter of the chain named. pIC50: −log10 of the molar value. Like-named read-outs stand apart in the source and are kept apart here. Bounds are passed on as bounds.

By pIC50 is commonly meant −log10 of the IC50, conventionally taken in molar units.

Test [1] deals with T1, hAR (human androgen receptor) (Homo sapiens, UniProt P10275).
T1 construct: made in house; host or cells: baculovirus/Sf9 insect cells
T1 sequence (P10275 1-920): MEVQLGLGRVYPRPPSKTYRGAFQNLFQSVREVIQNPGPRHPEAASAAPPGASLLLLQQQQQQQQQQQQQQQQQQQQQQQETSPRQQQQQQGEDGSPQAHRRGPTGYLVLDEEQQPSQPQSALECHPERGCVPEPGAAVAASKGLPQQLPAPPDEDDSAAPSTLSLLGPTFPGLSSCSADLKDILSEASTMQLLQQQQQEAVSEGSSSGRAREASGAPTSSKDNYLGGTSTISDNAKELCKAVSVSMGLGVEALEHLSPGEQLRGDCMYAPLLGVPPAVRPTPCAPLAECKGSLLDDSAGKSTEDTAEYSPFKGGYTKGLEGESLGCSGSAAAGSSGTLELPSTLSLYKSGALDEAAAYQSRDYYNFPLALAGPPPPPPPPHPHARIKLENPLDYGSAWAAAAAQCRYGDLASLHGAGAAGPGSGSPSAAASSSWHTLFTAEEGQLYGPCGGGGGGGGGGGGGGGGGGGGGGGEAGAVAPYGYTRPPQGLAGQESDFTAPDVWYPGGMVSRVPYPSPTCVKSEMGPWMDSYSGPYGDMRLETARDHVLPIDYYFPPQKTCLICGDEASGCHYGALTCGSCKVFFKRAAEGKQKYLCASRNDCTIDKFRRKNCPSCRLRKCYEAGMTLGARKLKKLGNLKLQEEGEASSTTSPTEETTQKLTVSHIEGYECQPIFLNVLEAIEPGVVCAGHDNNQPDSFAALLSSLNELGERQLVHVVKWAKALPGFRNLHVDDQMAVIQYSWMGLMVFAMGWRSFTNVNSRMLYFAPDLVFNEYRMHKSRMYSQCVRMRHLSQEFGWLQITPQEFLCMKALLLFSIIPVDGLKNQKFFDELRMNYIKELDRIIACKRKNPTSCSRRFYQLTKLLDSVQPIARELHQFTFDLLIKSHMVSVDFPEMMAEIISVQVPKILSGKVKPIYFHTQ
As to the kind of experiment: Competitive binding analysis on baculovirus/Sf9 generated hAR extracts with 3H-DHT tracer. On the procedure: The description below describes how the assay was carried out.
Competitive binding analysis was performed on baculovirus/Sf9 generated hAR extracts in the presence or absence of different concentrations of test agent and a fixed concentration of ^3H-dihydrotestosterone (^3H-DHT) as tracer. This binding assay method is a modification of a protocol previously described (Liao S., et. al. J. Steroid Biochem. 20:11-17 1984). Briefly, progressively decreasing concentrations of compounds are incubated in the presence of hAR extract (Chang et al. P.N.A.S. Vol. 89, pp. 5546-5950,1992), hydroxylapatite, and 1 nM ^3 H-DHT for one hour at 4° C. Subsequently, the binding reactions are washed three times to completely remove excess unbound ^3 H-DHT. hAR bound ^3H-DHT levels are determined in the presence of compounds (=i.e competitive binding) and compared to levels bound when no competitor is present (=i.e. maximum binding). Compound binding affinity to the hAR is expressed as the concentration of compound at which one half of the maximum binding is inhibited.

A further test concerns the target T2, androgen receptor (Homo sapiens, UniProt P10275).
T2 sequence (P10275 1-920 Q868H): T1 sequence (P10275 1-920) with Q868H
As to the kind of experiment: AR antagonist cell assay, MDA-MB453-MMTV clone 54-19 luciferase reporter. It counts as cell-based. The procedure: The compounds ability to antagonize the effects of androgen on the androgen receptor were determined in a whole cell assay as described immediately below.
This cell line is a stable transfected cell line with MDA-MB453 cell background (a human breast tumor cell line expressing androgen receptor). A MMTV minimal promoter containing ARE was first cloned in front of a firefly luciferase reporter gene. Then the cascade was cloned into transfection vector pUV120puro. Electroporation method was used for transfecting MDA-MB-453 cell. Puromycin resistant stable cell line was selected.
• 1. Cells are maintained in culture medium, splitting cells when they reach 80-90% confluence • 2. To test compounds, 10,000 cells/well are plated to opaque 96 cell culture plate in 100 ul/well plating medium, culture for overnight at 37° C. in cell culture incubator • 3. Carefully remove plating medium, then add 80 ul/well of pre-warmed assay medium, add 10 ul/well testing compound (final concentration at) 1000 nM, 200 nM, 40 nM, 8 nM, 1.6 nM, and 0.32 nM), incubate at 37° C. for 30 minutes • 4. Add 10 ul/well freshly prepared DHT (final concentration at 100 pM) to each well, incubate at 37° C. for 17 hr (overnight) • 5.
The results are reported as the mean of multiple tests as described below (the numbers of tests are indicated in the footnote). N.D. denotes that the compound was not tested.

The mark [2] stands for this setting: hAR extract, 1 nM 3H-DHT, one hour at 4° C., mean of multiple tests, read-out: AR Binding IC50.
Setting [3] is: MDA-MB453-MMTV clone 54-19, 100 pM DHT, 17 hr; mean of multiple tests; read-out: AR Cell IC50.
Where [4] appears, read: read-out: AR Cell IC50; MDA-MB453-MMTV clone 54-19, 100 pM DHT, 17 hr; mean of multiple tests.

As to `CC(C)CCCC(O)COc1ccc(C#N)c(C(F)(F)F)c1` (stereo not drawn) [Example 4, 4-(2-Hydroxy-6-methyl-heptyloxy)-2-tri-fluoromethyl-benzonitrile], the pIC50 in test [1] (setting [2]) was 6.35; at androgen receptor (setting [3]), under 6.00.

`CCCCCCC(O)COc1ccc(C#N)c(C(F)(F)F)c1` (stereo not drawn) [Example 5, 4-(2-Hydroxy-octyloxy)-2-tri-fluoromethyl-benzonitrile]: the pIC50 in test [1] (read-out: AR Binding IC50) is 7.49; at androgen receptor (setting [3]), 6.29.

Take `C=CCCCCC(O)COc1ccc(C#N)c(C(F)(F)F)c1` (stereo not drawn) [Example 6, 4-(2-Hydroxy-oct-7-enyl-oxy)-2-tri-fluoromethyl-benzonitrile]: the pIC50 in test [1] (setting [2]) was 6.38; on androgen receptor (setting [3]), 6.18.

For the molecule `CC(O)CCOc1ccc(C#N)c(C(F)(F)F)c1` (stereo not drawn) [Example 7, 4-(3-Hydroxy-butoxy)-2-tri-fluoromethyl-benzonitrile], the negative logarithm of the IC50 (pIC50) was 6.56 in test [1] (setting [2]) and under 6.00 at androgen receptor (setting [3]).

For the molecule `C[C@H](O)CCOc1ccc(C#N)c(C(F)(F)F)c1` [Example 8, (3S)-4-(3-Hydroxy-butoxy)-2-tri-fluoromethyl-benzonitrile], the pIC50 in test [1] (setting [2]) was 6.67; on androgen receptor (setting [3]) it was under 6.00.

Regarding `C=CCC(O)CCOc1ccc(C#N)c(C(F)(F)F)c1` (stereo not drawn) [Example 9, 4-(3-Hydroxy-hex-5-enyl-oxy)-2tri-fluoromethyl-benzonitrile], in test [1] (setting [2]), the pIC50 is 6.57.

`CC(O)C(C)COc1ccc(C#N)c(C(F)(F)F)c1` (stereo not drawn) [Example 10, 4-(3-Hydroxy-2-meth-yl-butoxy)-2-tri-fluoromethyl-benzonitrile]: the pIC50 in test [1] (read-out: AR Binding IC50) is 7.15; on androgen receptor (setting [3]), 6.56.

With `CC(C)(CO)COc1ccc(C#N)c(C(F)(F)F)c1` [Example 11, 4-(3-Hydroxy-2,2-di-methyl-propoxy)-2-tri-fluoromethyl-benzonitrile], in test [1] (setting [2]), the negative-log IC50 (pIC50) was 6.15.

Consider `CC(C)(O)CCOc1ccc(C#N)c(C(F)(F)F)c1` [Example 12, 4-(3-Hydroxy-3-meth-yl-butoxy)-2-tri-fluoromethyl-benzonitrile], for which the pIC50 was 7.57 in test [1] (read-out: AR Binding IC50) and 6.57 on androgen receptor (setting [3]).

In the case of `CC(C)C(O)C(C)(C)COc1ccc(C#N)c(C(F)(F)F)c1` (stereo not drawn) [Example 13, 4-(3-Hydroxy-2,2,4-tri-methyl-pentyloxy)-2-tri-fluoromethyl-benzonitrile], the negative logarithm of the IC50 (pIC50) in test [1] (setting [2]) is 6.35.

For `CCCC(O)C(CC)COc1ccc(C#N)c(C(F)(F)F)c1` (stereo not drawn) [Example 14, 4-(2-Ethyl-3-Hy-droxy-hexyl-oxy)-2-tri-fluoromethyl-benzonitrile], the results for the pIC50 (in test [1] (setting [2]); at androgen receptor (setting [3])) were 6.59 and 6.10, respectively.

Consider `C[C@H](O)C[C@H](C)Oc1ccc(C#N)c(C(F)(F)F)c1` [Example 16, (1S,3S)-4-(3-Hy-droxy-1-methyl-bu-toxy)-2-tri-fluoromethyl-benzonitrile], for which the pIC50 in test [1] was 8.22; at androgen receptor (setting [3]), under 6.00.

With `C[C@H](C[C@@H](C)O)Oc1ccc(C#N)c(C(F)(F)F)c1` [Example 17, (1R,3R)-4-(3-Hy-droxy-1-methyl-butoxy)-2-tri-fluoromethyl-benzonitrile], the negative logarithm of the IC50 (pIC50) was 6.97 in test [1] and 6.09 on androgen receptor (setting [3]).

`N#Cc1ccc(OCCCCO)cc1C(F)(F)F` [Example 18, 4-(4-Hydroxy-butoxy)-2-tri-fluoromethyl-benzonitrile]: the pIC50 in test [1] (read-out: AR Binding IC50) was 7.13; at androgen receptor (setting [3]), 6.40.

Consider `CC(O)CCCOc1ccc(C#N)c(C(F)(F)F)c1` (stereo not drawn) [Example 19], for which the pIC50 in test [1] (read-out: AR Binding IC50) was 6.30; at androgen receptor (setting [4]), under 6.00.

Turning to `CCCC(O)CCCOc1ccc(C#N)c(C(F)(F)F)c1` (stereo not drawn) [Example 20, 4-(4-Hydroxy-heptyloxy)-2-tri-fluoromethyl-benzontrile], the pIC50 in test [1] (setting [2]) is 6.61; on androgen receptor (setting [3]), 6.30.

Consider `CCCC(CCCO)Oc1ccc(C#N)c(C(F)(F)F)c1` (stereo not drawn) [Example 21, 4-(4-Hydroxy-1-pro-pyl-butoxy)-2-tri-fluoromethyl-benzonitrile], for which the pIC50 in test [1] (read-out: AR Binding IC50) is 6.09.

Take `CC(O)CCC(C)Oc1ccc(C#N)c(C(F)(F)F)c1` (stereo not drawn) [Example 22, 4-(4-Hydroxy-1-meth-yl-pentyloxy)-2-tri-fluoromethyl-benzonitrile]: the pIC50 in test [1] (setting [2]) is 6.73; at androgen receptor (setting [4]), under 6.00.

Consider `N#Cc1ccc(OCCCCCO)cc1C(F)(F)F` [Example 24, 4-(5-Hydroxy-pentyloxy)-2-tri-fluoromethyl-benzonitrile], for which the pIC50 in test [1] (setting [2]) is 6.20; at androgen receptor (setting [3]), under 6.00.

With `CC(O)CCCCOc1ccc(C#N)c(C(F)(F)F)c1` (stereo not drawn) [Example 25, 4-(5-Hydroxy-hexyloxy)-2-tri-fluoromethyl-benzonitrile], the figures for the pIC50 (in test [1] (setting [2]); on androgen receptor (setting [3])) were 6.30 and 6.08, respectively.

Regarding `CC(CCO)CCOc1ccc(C#N)c(C(F)(F)F)c1` (stereo not drawn) [Example 26, 4-(5-Hydroxy-3-meth-yl-pentyloxy)-2-tri-fluoromethyl-benzonitrile], the pIC50 in test [1] (read-out: AR Binding IC50) is 6.11.

Take `CC(O)CCC(C)Oc1ccc(C#N)c(Cl)c1` (stereo not drawn) [Example 28, 2-Chloro-4-(4-hydroxy-1-methyl-pentyloxy)-benzonitrile]: the values for the pIC50 (in test [1] (read-out: AR Binding IC50); at androgen receptor (setting [3])) were 7.31 and 6.58, respectively.

`N#Cc1ccc(OCCCO)cc1Cl` [Example 29, 2-Chloro-4-(3-hydroxy-propoxy)-benzonitrile]: the pIC50 in test [1] (read-out: AR Binding IC50) is 6.40.

For the molecule `N#Cc1ccc(OCCCCO)cc1Cl` [Example 30, 2-Chloro-4-(4-hydroxy-butoxy)-benzonitrile], in test [1] (read-out: AR Binding IC50), the pIC50 is 7.00.

On to `C=CC(CO)Oc1ccc(C#N)c(Cl)c1` (stereo not drawn) [Example 31, 2-Chloro-4-(1-hydroxymethyl-allyloxy)-benzonitrile], for which the pIC50 in test [1] (setting [2]) is 6.81.
